Series [1] has as its target T1, dihydrofolate reductase (DHFR) (Homo sapiens, UniProt P00374).
T1 construct: endogenous in cells; host or cells: MTX-resistant WI-L2 human leukemic lymphoblasts
T1 sequence (P00374 1-187): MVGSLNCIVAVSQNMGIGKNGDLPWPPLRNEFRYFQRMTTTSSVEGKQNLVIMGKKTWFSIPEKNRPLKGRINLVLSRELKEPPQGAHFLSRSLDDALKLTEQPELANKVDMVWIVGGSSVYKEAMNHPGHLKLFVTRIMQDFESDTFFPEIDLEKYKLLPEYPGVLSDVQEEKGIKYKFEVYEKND
Description: Inhibition of purified dihydrofolate reductase (DHFR) from human leukemic lymphoblasts (WI-L2 cells). It is filed as biochemical. From the text: DHFR was isolated from MTXresistant WIL2 cells and purified by affinity

The nature of series [2]: Stability in solution (base, pH 7.4 buffer, NH4HCO3 eluates). It is filed as physicochemical. As to conditions: for stability of 3% NH4HCO3 eluates: overnight in the refrigerator; for time stable in pH 7.4 phosphate buffer / half-life: room temperature, pH 7.4 phosphate buffer; for half-life: read-out: t1/2 (UV changes suggestive of pyrimidine ring cleavage) (converted). From the text:
Critically important to the successful purification of the end products of Examples 3 and 4 on diethylamino-ethylcellulose was that the fractions were freeze dried as soon as possible after collection.

Another series has as its system carboxypeptidase G1. Description: Glutamate hydrolysis by carboxypeptidase G1 (HPLC). It is filed as biochemical. As to conditions: for disappearance of starting material (glutamate hydrolysis): room temperature, 1M NaOAc, ZnCl2, in less than 15 min.
The subject of a further series is WI-L2 cells. Put plainly: Growth inhibition of cultured human WI-L2 tumor cells. It is filed as cell-based.
For series [3], the system named is L1210 cells. Description: Growth inhibition of cultured murine L1210 tumor cells. The series is classed as cell-based.
Series [4] relates to L1210 cells. Put plainly: Reversal test: effect of thymidine and hypoxanthine on growth of L1210 cells in presence of compound. It is filed as cell-based, murine. To be noted: Mus musculus. Here is the method: Thymidine (dThd) and hypoxanthine (Hx) were added at concentrations of 10 μM and 100 μM, respectively.
The subject of series [5] is E. coli dihydrofolate reductase (DHFR), aspartic acid replaced with serine. As to conditions: cited from earlier work.
Series [6] concerns DHFR, threonine residue replaced by valine. To be noted: threonine to valine mutant; cited from earlier work.
The mark [7] stands for this setting: WIL2, read-out: Cells IC50, WI-L2.
[8] abbreviates: Mus musculus, L1210, read-out: Cells IC50, L1210.
[9] abbreviates: Mus musculus, L1210, read-out: IC50, growth of cultured tumor cells.
Setting [10] is: WIL2, read-out: IC50, growth of cultured tumor cells.
[11] abbreviates: + 10 μM thymidine and 100 μM hypoxanthine, read-out: IC50, + dThd and Hx.
The mark [12] stands for this setting: + 10 μM thymidine, read-out: IC50, + dThd.
The mark [13] stands for this setting: + 100 μM hypoxanthine, read-out: IC50, + Hx.
Setting [14] is: read-out: IC50, standard medium.

A word on the IC50: it is the point on the concentration scale where inhibition reaches its midpoint.

SMILES strings stand for the structures. Like-named read-outs stand apart in the source and are kept apart here.

Consider `CN(Cc1cnc2ncnc(N)c2n1)c1ccc(C(=O)N[C@@H](CCC(=O)O)C(=O)O)cc1` [Example 3], for which the 50% inhibitory concentration (IC50) in series [1] was 5800 nM. In addition, the “stability of 3% NH4HCO3 eluates” value in series [2] was “extensive decomposition occurred”.
Regarding `CN(Cc1cnc2nc(N)nc(N)c2n1)c1ccc(C(=O)N[C@H](CCC(=O)O)C(=O)O)cc1` [D MTX, reference compound], the “cleavage by carboxypeptidase G1” value in the series with carboxypeptidase G1 (identical conditions) is “resistant”.
In the case of `Nc1nc(N)c2nc(CNc3ccc(C(=O)N[C@@H](CCC(=O)O)C(=O)O)cc3)cnc2n1` [AMT, aminopterin], the IC50 with WI-L2 cells (setting [7]) was determined as 7.1 nM.
As for `Nc1ncnc2ncc(CNc3ccc(C(=O)N[C@@H](CCC(=O)O)C(=O)O)cc3)nc12` [Example 1, 2-desamino-aminopterin], the half-maximal inhibitory concentration (IC50) in the series with L1210 cells [3] (setting [8]) was 82 nM; with L1210 cells [3] (setting [9]) it was 30 to 80 nM; in the series on WI-L2 cells (setting [7]), 81 nM; in the series on WI-L2 cells (setting [10]) it was 30 to 80 nM; with L1210 cells [4] (setting [11]), more than 100000 nM; with L1210 cells [4] (setting [12]) it was 160 nM. Besides, the figures for the IC50 in the series on L1210 cells [4] (setting [13]) and in the series on L1210 cells [4] (setting [14]) were 260 nM and 82 nM, respectively. For the same molecule, the “stability in 0.1 N NaOH by HPLC” value in series [2] was “rapid appearance of new peaks indicating a chemical reaction”. Moreover, in series [2], the “time stable in pH 7.4 phosphate buffer” value is recorded as “at least 24 h”. Further, the half-life in series [2] was approximately 72 h. Also, the “disappearance of starting material (glutamate hydrolysis)” value in the series on carboxypeptidase G1 is listed as more than 95%.
As for `Cc1nc(N)c2nc(CN(C)c3ccc(C(=O)N[C@@H](CCC(=O)O)C(=O)O)cc3)cnc2n1` [Example 4], the IC50 in series [1] (purified DHFR from MTX-resistant WI-L2 cells, read-out: DHFR IC50) is more than 20000 nM. Further, the “stability of 3% NH4HCO3 eluates” value in series [2] is given as “extensive decomposition occurred”.
On to `Cc1nc(N)c2nc(CNc3ccc(C(=O)N[C@@H](CCC(=O)O)C(=O)O)cc3)cnc2n1` [Example 2, 2-desamino-2-methyl-aminopterin], for which the IC50 in series [1] was more than 50000 nM; in the series with L1210 cells [3] (setting [8]) it was 42 nM; with L1210 cells [3] (setting [9]), 30 to 80 nM; in the series with WI-L2 cells (setting [7]), 28 nM; in the series with WI-L2 cells (setting [10]), 30 to 80 nM; in the series on L1210 cells [4] (setting [11]), more than 100000 nM. For the same molecule, the IC50 worked out at 130 nM in the series on L1210 cells [4] (setting [12]), 160 nM in the series with L1210 cells [4] (setting [13]) and 42 nM in the series on L1210 cells [4] (setting [14]). For the same molecule, the “stability in 0.1 N NaOH by HPLC” value in series [2] was “rapid appearance of new peaks indicating a chemical reaction”. For the same molecule, the “time stable in pH 7.4 phosphate buffer” value in series [2] is recorded as “at least 24 h”. For the same molecule, in series [2], the half-life is approximately 72 h. In the series with carboxypeptidase G1, the “disappearance of starting material (glutamate hydrolysis)” value is on record as more than 95%.
Regarding `CN(Cc1cnc2nc(N)nc(N)c2n1)c1ccc(C(=O)N[C@@H](CCC(=O)O)C(=O)O)cc1` [MTX, methotrexate], the IC50 in the series with L1210 cells [3] (Mus musculus, L1210; read-out: Cells IC50, L1210) was determined as 9 nM; in the series with L1210 cells [3] (Mus musculus; one figure stated for WI-L2 and L1210 together; here L1210; read-out: IC50, growth of cultured tumor cells) it was 10 nM; in the series on WI-L2 cells (WIL2, one figure stated for WI-L2 and L1210 together, here WI-L2, read-out: IC50, growth of cultured tumor cells) it was 10 nM; with WI-L2 cells (setting [7]), 13 nM. Also, in series [5] (aspartic acid to serine mutant of E. coli DHFR, equilibrium dialysis), the “increase in the KD for MTX binding” value was 3000 fold. In addition, the “decrease in the binding energy” value in series [5] (aspartic acid to serine mutant) was 4.4 kcal/mol. Also, in series [6], the “decrease in the KD for MTX” value is recorded as 25 fold.

The record behind these values is patent US4956461A, “Desamino-aminopterin and -methotrexate” (priority 1989, dated 1990).
